“Also recorded” adds a separate entry of the source. Structures can show the parent of a compound that is named as a salt.
Assays:
[1] = Chemical stability study in buffers (hydrolysis half-life, HPLC); assay type: physicochemical; conditions: buffer, read-out: t1/2 (chemical stability) (converted)
Experimental: In the examples, chemical stability studies for rapamycin and the prodrugs were done at 20 μg/ml with an ionic strength of 0.5. Stabilities at pH 3.3 (0.05M acetate buffer) and pH 7.4 (0.05M phosphate buffer) were studied at 25° and 37.5° C. No antioxidants were added and the buffers were not deoxygenated.
(§1) The chemical and plasma studies were followed by HPLC using a RP C-18 column (150 mm) and a precolumn (50 mm). […] Chart speed was 1 inch/10 minutes.

[2] = Rat plasma stability study (37.5° C.); assay type: in vitro ADME, Sprague-Dawley male albino rats; conditions: for half-life: rat, plasma, read-out: t1/2 (plasma stability) (converted)
Experimental: (§2) The plasma studies were done at three prodrug concentrations: 200, 100 and 50 μg/ml of prodrug. The experimental procedure was as follows: The compound to be tested was taken from a stock aqueous solution of 5 mg/ml and added to the plasma to give the desired prodrug concentration. […] Before centrifugation 200 μl of methanol was added to further precipitate the plasma proteins. The results are expressed in half-lives in hours.
as §1

[3] = Human plasma stability study (37.5° C.); assay type: in vitro ADME; conditions: for half-life: human, plasma
Experimental: as §2, §1

[4] = Products of decomposition/hydrolysis in plasma and homogenate studies (HPLC, TLC)
Experimental: (§3) The liver homogenate studies were done using livers freshly obtained from male albino Sprague-Dawley rats. A 20% liver homogenate was prepared in Sorensen's buffer at pH 7.4. Chemical stability studies of rapamycin and the two prodrugs of Examples 2 and 3 were carried out at concentrations of 20, 50 and 50 μg/ml respectively, at 37.5° C.

[5] = Rat liver homogenate stability study (37.5° C.); assay type: in vitro ADME, male albino Sprague-Dawley rats; conditions: 20% rat liver homogenate, pH 7.4, 50 μg/ml, read-out: t1/2 (liver homogenate stability) (converted)
Experimental: as §3

[6] = background statement; cited from earlier work
[7] = Stability to light and to long stirring; assay type: physicochemical
Solubility in water = assay type: physicochemical
[8] = human plasma, 50 μg/ml, 37.5° C., read-out: t1/2 (plasma stability) (converted)

SMILES	half-life ([1]; pH 3.3, pH 3.3, 25° C.) [h]	half-life ([1]; pH 7.4, pH 7.4, 25° C.) [h]	half-life ([2]; 50 μg/ml) [h]	half-life [3, 8] [h]	half-life [5] [h]	stability on prolonged exposure to light [7]	solubility (Solubility in water) [mg/mL]	half-life ([2]; 100 μg/ml) [h]	half-life ([2]; 200 μg/ml) [h]	other results
CO[C@H]1C[C@@H]2CC[C@@H](C)[C@@](O)(O2)C(=O)C(=O)N2CCCC[C@H]2C(=O)O[C@H]([C@H](C)C[C@@H]2CC[C@@H](O)[C@H](OC)C2)CC(=O)[C@H](C)/C=C(\C)[C@@H](O)[C@@H](OC)C(=O)[C@H](C)C[C@H](C)/C=C/C=C/C=C/1C [Rapamycin, rapamycin]	35.8	47.6	2.83	3	5.5					half-life ([1]; pH 3.3, pH 3.3, 37.5° C.): 9.9 h; half-life ([1]; pH 7.4, pH 7.4, 37.5° C.): 10.2 h; further degradation (TLC) ([4]; plasma and homogenate studies, TLC): further degraded to other decomposition products; Solubility in water [6]: 20 micrograms per milliliter
CO[C@H]1C[C@@H]2CC[C@@H](C)[C@@](O)(O2)C(=O)C(=O)N2CCCC[C@H]2C(=O)O[C@H]([C@H](C)C[C@@H]2CC[C@@H](O)[C@H](OC)C2)CC(=O)[C@H](C)/C=C(\C)[C@@H](OC(=O)CCCN2CCCC2)[C@@H](OC)C(=O)[C@H](C)C[C@H](C)/C=C/C=C/C=C/1C [Example 4, Mono-(28)-4'-(N-pyrrolidino)-butyrate Hydrochloride Salt Ester of Rapamycin]						appears to discolor upon prolonged exposure to light	~15			
CCN(CC)CCC(=O)O[C@@H]1/C(C)=C/[C@@H](C)C(=O)C[C@@H]([C@H](C)C[C@@H]2CC[C@@H](O)[C@H](OC)C2)OC(=O)[C@@H]2CCCCN2C(=O)C(=O)[C@]2(O)O[C@@H](CC[C@H]2C)C[C@H](OC)/C(C)=C/C=C/C=C/[C@@H](C)C[C@@H](C)C(=O)[C@@H]1OC [Example 3, Mono-(28)-3-(N,N-Diethylamino)propionate Hydrochloride Salt Ester of Rapamycin]					3.7	unstable to prolonged exposure to light; also recorded: appears to discolor upon prolonged exposure to light	> 50	58	60	half life of the prodrug compared with the others [3]: the shortest; time within which half of the prodrug decomposed into products including mainly rapamycin [3]: two and one-half; half-life ([3]; t1/2 (plasma stability)): 2.5 h; observed product of hydrolysis / decomposition [4]: rapamycin being the only observed product of hydrolysis
CO[C@H]1C[C@@H]2CC[C@@H](C)[C@@](O)(O2)C(=O)C(=O)N2CCCC[C@H]2C(=O)O[C@H]([C@H](C)C[C@@H]2CC[C@@H](O)[C@H](OC)C2)CC(=O)[C@H](C)/C=C(\C)[C@@H](OC(=O)CN(C)C)[C@@H](OC)C(=O)[C@H](C)C[C@H](C)/C=C/C=C/C=C/1C [Example 2, Methanesulfonic Acid Salt of Mono-(28)-N,N Dimethylglycinate Ester of Rapamycin]	73	45	1.8	5	4.5	slow discoloration of the material; also recorded: appears to discolor upon prolonged exposure to light	> 50	1.8	2.5	t1/2 (plasma stability) ([2]; 50 μg/ml): 1.75 h; t1/2 (plasma stability) ([3]; human plasma, 50 μg/ml, 37.5° C.): 5.0 h; half-life ([3]; human plasma, 100 μg/ml, 37.5° C., read-out: t1/2 (plasma stability) (converted)): 4.8 h; half-life ([3]; human plasma, 200 μg/ml, 37.5° C., read-out: t1/2 (plasma stability) (converted)): 5.6 h; stability to long stirring times ([7]; salt form): unstable to long stirring times
